Patent US5612329A (priority 1995, dated 1997)

Key:
[1] = test system: pBR322 DNA; type: biochemical; settings: 37° C., 18 hr, pH 7.4
[2] = test system: CCRF-CEN cells; assay: In vitro cytotoxicity / cell growth inhibition, leukemia; type: cell-based; settings: Homo sapiens, 48 hr, read-out: log10 G150 (converted)
Description: (§1) The anti-proliferative activities of the aziridinylpolyamines obtained in Synthesis Examples 1-4 were assessed by determining log10 G150 values against human cancer cell lines using the screening strategy described by Boyd et al, Drug Devel. Res. 34:91-109 (1995).
(§2) More specifically, the compounds were tested at a minimum of five concentrations at 10-fold dilutions using a 48 hr continuous exposure protocol. Each cell line shown in Table 1 below was inoculated onto microtiter plates. After a pre-incubation period of 24-48 hr at 37° C., the test compounds were added, and the culture was incubated for an additional 48 hr at 37° C. Cell viability or cell growth end-point determinations were performed by fixation of the cells, followed by staining with sulforhodamine B (Monks et al, J. Natl. Cancer Inst., 83:757-766 (1991)).

[3] = test system: K-562 cells; assay: as above; type: cell-based; settings: Homo sapiens, K562; K-562, leukemia, 48 hr; read-out: log10 G150 (converted)
Description: as §1, §2

[4] = test system: MOLT-4 cells; assay: as above; type: cell-based; settings: Homo sapiens; MOLT-4, leukemia, 48 hr; read-out: log10 G150 (converted)
Description: as §1, §2

[5] = test system: RPMI-8226 cells; assay: as above; type: cell-based; settings: Homo sapiens; RPMI-8226, leukemia, 48 hr; read-out: log10 G150 (converted)
Description: as §1, §2

[6] = test system: SR cells; assay: as above; type: cell-based; settings: Homo sapiens, 48 hr, read-out: log10 G150 (converted)
Description: as §1, §2

[7] = test system: HL-60 (TB) cells; assay: cells; type: cell-based; settings: Homo sapiens, leukemia, 48 hr, read-out: log10 G150 (converted)
[8] = test system: A549/ATCC cells; assay: In vitro cytotoxicity / cell growth inhibition, non-small cell lung cancer; type: cell-based; settings: Homo sapiens, 48 hr, read-out: log10 G150 (converted)
Description: as §1, §2

[9] = test system: EKVX cells; assay: as above; type: cell-based; settings: Homo sapiens, 48 hr, read-out: log10 G150 (converted)
Description: as §1, §2

[10] = test system: HOP-62 cells; assay: as above; type: cell-based; settings: Homo sapiens; HOP-62, non-small cell lung cancer, 48 hr; read-out: log10 G150 (converted)
Description: as §1, §2

[11] = test system: HOP-92 cells; assay: as above; type: cell-based; settings: Homo sapiens; HOP-92, non-small cell lung cancer, 48 hr; read-out: log10 G150 (converted)
Description: as §1, §2

[12] = test system: NCl-H226 cells; assay: as above; type: cell-based; settings: Homo sapiens, 48 hr, read-out: log10 G150 (converted)
Description: as §1, §2

[13] = test system: NCl-H23 cells; assay: as above; type: cell-based; settings: Homo sapiens, 48 hr, read-out: log10 G150 (converted)
Description: as §1, §2

[14] = test system: NCl-H322M cells; assay: as above; type: cell-based; settings: Homo sapiens, 48 hr, read-out: log10 G150 (converted)
Description: as §1, §2

[15] = test system: NCl-H460 cells; assay: as above; type: cell-based; settings: Homo sapiens, 48 hr, read-out: log10 G150 (converted)
Description: as §1, §2

[16] = test system: NCl-H522 cells; assay: as above; type: cell-based; settings: Homo sapiens, 48 hr, read-out: log10 G150 (converted)
Description: as §1, §2

[17] = test system: COLO 205 cells; assay: In vitro cytotoxicity / cell growth inhibition, colon cancer; type: cell-based; settings: Homo sapiens; COLO 205, colon cancer, 48 hr; read-out: log10 G150 (converted)
Description: as §1, §2

[18] = test system: HCC-2998 cells; assay: as above; type: cell-based; settings: Homo sapiens; HCC-2998, colon cancer, 48 hr; read-out: log10 G150 (converted)
Description: as §1, §2

[19] = test system: HCT-116 cells; assay: as above; type: cell-based; settings: Homo sapiens; HCT-116, colon cancer, 48 hr; read-out: log10 G150 (converted)
Description: as §1, §2

[20] = test system: HCT-15 cells; assay: as above; type: cell-based; settings: Homo sapiens; HCT-15, colon cancer, 48 hr; read-out: log10 G150 (converted)
Description: as §1, §2

[21] = test system: HT29 cells; assay: as above; type: cell-based; settings: Homo sapiens, HT-29, 48 hr, read-out: log10 G150 (converted)
Description: as §1, §2

[22] = test system: KM12 cells; assay: as above; type: cell-based; settings: Homo sapiens, 48 hr, read-out: log10 G150 (converted)
Description: as §1, §2

[23] = test system: SW-620 cells; assay: as above; type: cell-based; settings: Homo sapiens; SW-620, colon cancer, 48 hr; read-out: log10 G150 (converted)
Description: as §1, §2

[24] = test system: SF-268 cells; assay: In vitro cytotoxicity / cell growth inhibition, CNS cancer; type: cell-based; settings: Homo sapiens; SF-268, CNS cancer, 48 hr; read-out: log10 G150 (converted)
Description: as §1, §2

[25] = test system: SF-295 cells; assay: as above; type: cell-based; settings: Homo sapiens; SF-295, CNS cancer, 48 hr; read-out: log10 G150 (converted)
Description: as §1, §2

[26] = test system: SF-539 cells; assay: as above; type: cell-based; settings: Homo sapiens; SF-539, CNS cancer, 48 hr; read-out: log10 G150 (converted)
Description: as §1, §2

[27] = test system: SNB-19 cells; assay: as above; type: cell-based; settings: Homo sapiens; SNB-19, CNS cancer, 48 hr; read-out: log10 G150 (converted)
Description: as §1, §2

[28] = test system: SNB-75 cells; assay: as above; type: cell-based; settings: Homo sapiens; SNB-75, CNS cancer, 48 hr; read-out: log10 G150 (converted)
Description: as §1, §2

[29] = test system: U251 cells; assay: as above; type: cell-based; settings: Homo sapiens, U-251, 48 hr, read-out: log10 G150 (converted)
Description: as §1, §2

[30] = test system: 786-0 cells; assay: In vitro cytotoxicity / cell growth inhibition, renal cancer; type: cell-based; settings: Homo sapiens; 786-0, renal cancer, 48 hr; read-out: log10 G150 (converted)
Description: as §1, §2

[31] = test system: A498 cells; assay: as above; type: cell-based; settings: Homo sapiens, 48 hr, read-out: log10 G150 (converted)
Description: as §1, §2

[32] = test system: ACHN cells; assay: as above; type: cell-based; settings: Homo sapiens, 48 hr, read-out: log10 G150 (converted)
Description: as §1, §2

[33] = test system: CAKI-1 cells; assay: as above; type: cell-based; settings: Homo sapiens; CAKI-1, renal cancer, 48 hr; read-out: log10 G150 (converted)
Description: as §1, §2

[34] = test system: SN12C cells; assay: as above; type: cell-based; settings: Homo sapiens, 48 hr, read-out: log10 G150 (converted)
Description: as §1, §2

[35] = test system: TK-10 cells; assay: as above; type: cell-based; settings: Homo sapiens; TK-10, renal cancer, 48 hr; read-out: log10 G150 (converted)
Description: as §1, §2

## C(CCNCCCN1CC1)CNCCCN1CC1 [Synthesis Example 1, 1,12-Diaziridinyl-4,9-diazadodecane]
[1]
  concentration at which DNA was found to be cross-linked: ≤ 0.1 µM
[2]
  GI50: 63.1 nM
[3]
  GI50: 4370 nM
[4]
  GI50: 44.7 nM
[5]
  GI50: 5130 nM
[6]
  GI50: 18.2 nM
[7]
  GI50: 35.5 nM
[8]
  GI50: 891 nM
[9]
  GI50: 3470 nM
[10]
  GI50: 58.9 nM
[11]
  GI50: 219 nM
[12]
  GI50: 724 nM
[13]
  GI50: 263 nM
[14]
  GI50: 4570 nM
[15]
  GI50: 363 nM
[16]
  GI50: 427 nM
[17]
  GI50: 407 nM
[18]
  GI50: 1820 nM
[19]
  GI50: 1260 nM
[20]
  GI50: 11500 nM
[21]
  GI50: 3630 nM
[22]
  GI50: 15500 nM
[23]
  GI50: 2630 nM
[24]
  GI50: 148 nM
[25]
  GI50: 155 nM
[26]
  GI50: 37.2 nM
[27]
  GI50: 1120 nM
[28]
  GI50: 27.5 nM
[29]
  GI50: 417 nM
[30]
  GI50: 11.2 nM
[31]
  GI50: 1820 nM
[32]
  GI50: 141 nM
[33]
  GI50: 18.6 nM
[34]
  GI50: 135 nM
[35]
  GI50: 3240 nM
